{"source": "patent US20090163521A1", "about": "“Novel Pyrazolopyrimidinone Derivatives” (ORCHID RESEARCH LABORATORIES LIMITED, priority 2005, published 2009)", "key": {"Rat Paw Edema model": {"tested_on": "Rat Paw Edema model", "assay": "Carrageenan induced paw edema test in rat", "format": "in vivo", "conditions": "5 mg/kg b. wt., p.o.; 3 hours after carrageenan", "method": "The carrageenan paw edema test was performed as described by Winter et al (Proc. Soc. Exp. Biol. Med, 111, 544, 1962). Male wistar rats were selected with body weights equivalent within each group. The rats were fasted for eighteen hours with free access to water. The rats were dosed orally with the test compound suspended in vehicle containing 0.25% carboxymethylcellulose and 0.5% Tween 80. The control rats were administered with vehicle alone. After an hour, the rats were injected with 0.1 ml of 1% Carrageenan solution in 0.9% saline into the sub-plantar surface of the right hind paw. Paw volume was measured using digital plethysmograph before and after 3 hours of carrageenan injection. The average of foot swelling in drug treated animals was compared with that of control animals. Anti-inflammatory activity was expressed as the percentage inhibition of edema compared with control group [Arzneim-Forsch/Drug Res., 43 (1), 1, 44-50, 1993; Ottemess and Bliven, Laboratory Models for Testing NSAIDs, In Non-Steroidal Anti-Inflammatory Drugs, (J. Lombardino, ed. 1985)]."}, "MCF-7": {"tested_on": "MCF-7", "assay": "DTP human tumor cell line screen, MCF-7", "format": "cell-based", "conditions": "100 μM; 48 hours; percent growth of control", "method": "(§1) The current assay utilizes a 384 well plate format and fluorescent staining technologies resulting in greater screening capacity for testing of synthetic samples.\n(§2) The cell lines of the cancer-screening panel are grown in RPMI 1640 medium containing 5% fetal bovine serum and 2 mM L-glutamine. For a typical screening experiment, cells are inoculated into 96 well microtiter plates in 100 μL. After cell inoculation, the micro-titer plates are incubated at 37° C., 5% CO2, 95% air and 100% relative humidity for 24 h prior to addition of experimental drugs. The cells are plated a densities of 5000 cells/well (MCF7), 1000 cells/well (NCI-H460), and 7500 cells/well (SF-268) to allow for varying doubling time of the cell lines. Each plate contains all three-cell lines, a series of dilutions of standard agents, total kill wells and appropriate controls. Plates are incubated under standard conditions for 24 hours prior to addition of experimental compounds or extracts.\n(§3) Experimental compounds are solubilized in dimethyl sulfoxide (DMSO) at 400-times the desired maximum test concentration (maximum final DMSO concentration of 0.25%) and stored frozen. Compounds are then diluted with complete media with 0.1% gentamicin sulfate (5 μl of test sample in 100% DMSO is added to 565 μl of complete medium). 20 μl of this solution is then dispensed into test wells containing 50 μl of cell suspension to yield a test concentration of 1.00E-04M.\n(§4) After compound addition, plates are incubated at standard conditions for 48 hours, 10 μl/well Alamar Blue is added and the plates are incubated for an additional 4 hours. Fluorescence is measured using an excitation wavelength of 530 nm and an emission wavelength of 590 nm.\n(§5) Percent growth is calculated on a plate-by-plate basis for test wells relative to control wells. Percent Growth is expressed as the ratio of fluorescence of the test well to the average fluorescence of the control wells ×100."}, "SF-268": {"tested_on": "SF-268", "assay": "DTP human tumor cell line screen, SF-268", "format": "cell-based", "conditions": "100 μM; 48 hours; percent growth of control", "method": "as §1, §2, §3, §4, §5"}, "NCI-H460": {"tested_on": "NCI-H460", "assay": "DTP human tumor cell line screen, NCI-H460", "format": "cell-based", "conditions": "100 μM; 48 hours; percent growth of control", "method": "as §1, §2, §3, §4, §5"}, "Ulcerogenic potential": {"assay": "Ulcerogenic potential", "format": "in vivo, rat", "conditions": "oral; 4 hrs after administration; dose selected 50, 100, 200 mg/kg", "excerpt": "In order to evaluate compound's role on the ulcer formation, the animals were sacrificed and the stomach was taken out and flushed with 1% formalin. Animals (male wistar 200 gm) were fasted for 18 hrs free access to water and the test compounds were suspended in 0.5% Tween 80 and 0.25% CMC (carboxymethylcellulose) solution to make a uniform suspension. After 4 hrs of oral administration of test compounds, all the animals were sacrificed by cervical dislocation. Dissect the stomach carefully and filled up with a sterile saline solution and embedded in 6% formalin solution. […] Compare the test compound treated groups with the vehicle treated groups. Dose selected: 50, 100, 200 mg/kg (Marco Romano et al, Journal of clinical Investigation, 1992; 2409-2421)."}, "TNF-α": {"tested_on": "TNF-α", "assay": "LPS induced sepsis for measurement of TNF-α inhibition in mice", "format": "in vivo", "conditions": "at 50 mg/kg, oral, serum 90 min after LPS", "method": "The LPS induced sepsis model in mice was performed as described by Les sekut et al (J Lab Clin Med 1994; 124:813-20). Female Swiss albino mice were selected and the body weights were equivalent within each group. The mice were fasted for 20 hours with free access to water. The mice were dosed orally with the test compound suspended in vehicle containing 0.5% Tween 80 in 0.25% Carboxy-methylcellulose sodium salt. The control mice were administered the vehicle alone. After 30 min of oral dosing, mice were injected with 500 μg of Lipopolysaccharide (Escherichia coli, LPS: B4 from Sigma) in phosphate buffer saline solution into the intraperitoneal cavity of the mice. After 90 min of LPS administration mice were bled via retro-orbital sinus puncture. Blood samples were stored overnight at 4° C. Serum samples were collected by centrifuging the samples at 400 rpm for 15 min at 4° C. Immediately the serum samples were analysed for TNFα levels using commercially available mouse TNF-α ELISA kit (Amersham Biosciences) and assay was performed by the manufacturer instruction."}}, "data": [{"smiles": "CSc1ccc(-c2nc3[nH]nc(N)c3c(=O)n2-c2ccc(C)c(C)c2)cc1", "note": "[Example 2, 3-amino-5-(3,4-dimethylphenyl)-6-[4-(methylthio)phenyl]-1,5-dihydro-4H-pyrazolo[3,4-d]pyrimidin-4-one]", "values": [{"measurement": "melting point", "result": "263 to 266", "unit": "°C"}, {"measurement": "Rat Paw Edema model % Inhibition", "setting": "Rat Paw Edema model", "result": "30.52 ± 10.3", "unit": "%"}, {"measurement": "% T/C Breast (MCF-7)", "setting": "MCF-7", "result": 31, "unit": "%"}, {"measurement": "% T/C CNS (SF-268)", "setting": "SF-268", "result": 39, "unit": "%"}, {"measurement": "% T/C Lung (NCI-H460)", "setting": "NCI-H460", "result": 7, "unit": "%"}, {"measurement": "Ulcer Incidence (Number of animals/Total number of animals)", "setting": "Ulcerogenic potential", "result": "No ulcer"}, {"measurement": "TNF-α Inhibition (%)", "setting": "TNF-α", "result": "34.29 (at 50 mg/kg) %"}]}]}
